Laboratory results taken from patent publication US20230381176A1, “A PHARMACEUTICAL COMPOSITION AND USE THEREOF FOR TREATMENT OF CANCER” (Ascentage Pharma (Suzhou) Co., Ltd., priority 2020, published 2023).

Tests used:
[1] = system: PTK2 high ovarian PDX OV2018; assay: PTK2 high ovarian PDX model OV2018, Compound 5 and paclitaxel; assay type: in vivo, mouse
Method: (§1) A subcutaneous xenograft tumor model of human tumor immunodeficient mice was established by cell inoculation: tumor cells in logarithmic growth phase were collected, counted, resuspended in 1×PBS, and the cell suspension concentration was adjusted to 2.5-5 ×10^7/mL. The tumor cells were inoculated subcutaneously in the right side of immunodeficient mice with a 1 mL syringe ([…]), 5-10×10^6/0.2 mL/mouse. All animal experiments were strictly in accordance with the specifications for the use and management of experimental animals in GenePharma Co., Ltd. and Suzhou Ascentage Pharma Co., Ltd. The calculation of relevant parameters refers to the Chinese NMPA “Guidelines for Non-Clinical Research Techniques of Cytotoxic Anti-tumor Drugs”.
(§2) Animal body weight and tumor size were measured twice weekly during the experiment. The state of the animal and the presence or absence of death were observed every day. The growth of tumor and the effects of treatment on normal behavior of animals were monitored routinely, specifically involving experimental animal activity, feeding and drinking, weight gain or loss, eyes, clothing hair and other abnormalities. The deaths and clinical symptoms observed during the experiment were recorded in the raw data. All operations for administration and measurement of mouse body weight and tumor volume were performed in a clean bench. According to the requirements of the experimental protocol, after the end of the last administration, plasma and tumor tissues were collected, weighed and photographed. The plasma and tumor samples were frozen at −80° C. for ready-to-use.
(§3) Tumor volume (TV) is calculated as: TV=a×b^2/2, wherein a and b represent the length and width of the tumor to be measured, respectively.
(§4) The relative tumor volume (RTV) is calculated as: RTV=Vt/V1, wherein V1 is the tumor volume at the start of grouping and administration, and Vt is the tumor volume measured on the t day after administration.
(§5) Change of body weight (%)=(measured body weight−body weight at the start of grouping)/body weight at the start of grouping×100%.
(§6) A dose of drug is considered to be severely toxic if the body weight of mouse is reduced by more than 20% or the number of drug-related deaths exceeds 20%.
(§7) According to the description by Clarke R., Issues in experimental design and endpoint analysis in the study of experimental cytotoxic agents in vivo in breast cancer and other models [J]. Breast Cancer Research & Treatment, 1997, 46(2-3): 255-278, synergy analysis was evaluated using the following formula: synergy factor=((A/C)×(B/C))/(AB/C); A=RTV value of drug A alone group; B=RTV value of drug B alone group; C=RTV value of the solvent control group, and AB=RTV value of the A and B combination group.
(§8) Use of mRECIST (Gao et al., 2015) measured tumor responses included stable disease (SD), partial tumor regression (PR), and complete regression (CR), determined by comparing tumor volume change at day t to its baseline: tumor volume change (%)=(Vt−V1)/V1. The BestResponse was the minimum value of tumor volume change (%) for t≥10. For each time t, the average of tumor volume changes from t=1 to t was also calculated. BestAvgResponse was defined as the minimum value of this average for t≥10. The criteria for response (mRECIST) were adapted from RECIST criteria (Gao et al., 2015; Therasse et al., 2000) and defined as follows: mCR, BestResponse<−95% and BestAvg Response<−40%; mPR, BestResponse<−50% and BestAvgResponse<−20%; mSD, BestResponse<35% and BestAvgResponse<30%; mPD, not otherwise categorized. SD, PR, and CR were considered responders and used to calculate response rate (%). […] Body weight of animals were monitored simultaneously. The change in body weight was calculated based on the animal weight of the first day of dosing (day 1). Tumor volume and changes in body weight (%) were represented as the mean±standard error of the mean (SEM).

[2] = system: Neuroblastoma SH-SY5Y (ALK F1174L) xenograft; assay type: in vivo, mouse
Method: as §1, §2, §3, §4
The evaluation index of anti-tumor activity is the relative tumor proliferation rate T/C (%), and the calculation formula thereof is: relative tumor proliferation rate T/C (%)=(TRTV/CRTV)×100%, TRTV is the RTV of treatment group, CRTV is the RTV of solvent control group.
as §5, §6, §7
as §8, with “The change in body weight was calculated based on the animal weight of the first day of dosing (day 1). Tumor volume and changes in body weight (%) were represented as the mean±standard error of the mean (SEM).” left out

[3] = system: OVCAR3 s.c. ovarian xenograft; assay type: in vivo
Method: as §1, §2, §3, §4, §5, §6, §7, §8

[4] = Compound 5 50 mg/kg orally once per day, paclitaxel 10 mg/kg i.v. once a week, 35 days
[5] = Compound 5 50 mg/kg, ribociclib 75 mg/kg, orally once per day, 21 days
[6] = Compound 5 100 mg/kg orally once per day, paclitaxel 10 mg/kg i.v. once a week, carboplatin 30 mg/kg i.v. once a week

## Cc1cc(Nc2ncc(Cl)c(Nc3ccccc3S(=O)(=O)C(C)C)n2)c(OC(C)C)cc1C1=CCN(C2CCOCC2)CC1 [Compound 5, 5-chloro-N^2-(2-isopropoxy-5-methyl-4-(1-(tetrahydro-2H-pyran-4-yl)-1,2,3,6-tetrahydropyridin-4-yl)phenyl)-N^4-(2-(isopropylsulfonyl)phenyl)pyrimidine-2,4-diamine]
[1]; [4]
  RTV on Day 35 after administration (mean ± standard error): 3.94 ± 0.41
  T/C on Day 35 after administration (%): 162.80%
[1]; Day 35, animals per class
  mRECIST on Day 35 after administration: 2/2 PD
[1]; best response, animals per class
  mRECIST: 2/2 PD
[1]; mouse, in vivo
  antitumor activity (conclusion in words): no antitumor activity
[2]; [5]
  RTV on Day 21 after administration (mean ± standard error): 1.79 ± 0.22
  T/C on Day 21 after administration (%): 6.74%
[2]; Day 21, animals per class
  mRECIST on Day 21 after administration: 2/5 SD, 3/5 PD
[2]; based on mRECIST
  Disease control rate: 2/5 PD (60%)
[2]; mouse, in vivo
  antitumor activity (conclusion in words): strong antitumor activity
  body weight loss: less than 10%
[3]; [6]
  RTV on Day 35 after administration (mean ± standard error): 13.66 ± 2.88
  T/C on Day 35 after administration (%): 85.04%
[3]; animals per class
  mRECIST: 5/5 PD
[3]; mouse, in vivo
  antitumor activity (conclusion in words): minor antitumor activity
[3]; proportion of animals with CR or PR
  Overall regression rate (ORR), %: 0%
[3]; proportion of animals with CR, PR or SD
  Disease control rate (DCR), %: 0%
